In patent US20260216368A1, “BIS-ESTER AND AMIDE CATIONIC LIPIDS” (SANOFI PASTEUR INC., priority 2022, published 2026):

Legend:
[1] = DLS size and polydispersity of hEPO mRNA lipid nanoparticles; assay type: physicochemical; conditions: hEPO mRNA LNP, Cationic Lipid:DMG-PEG2000:Cholesterol:DOPE=40:1.5:28.5:30, N/P ratio 4, Process A
Procedure: The lipid nanoparticles in the examples of the present invention were formulated using Process A of WO 2018/089801 (see, e.g., Example 1 and FIG. 1 of WO 2018/089801). Process A (“A”) relates to a conventional method of encapsulating mRNA by mixing mRNA with a mixture of lipids, without first pre-forming the lipids into lipid nanoparticles. In an exemplary process, an ethanol lipid solution and an aqueous buffered solution of mRNA were prepared separately. A solution of mixture of lipids (cationic lipid, helper lipids, zwitterionic lipids, PEG lipids etc.) was prepared by dissolving lipids in ethanol. The mRNA solution was prepared by dissolving the mRNA in citrate buffer. Then, these two solutions were mixed using a pump system. In some instances, the two solutions were mixed using a gear pump system. In certain embodiments, the two solutions were mixing using a ‘T’ junction (or “Y” junction). The mixture was then purified by diafiltration with a TFF process. The resultant formulation concentrated and stored at 2-8° C. until further use.
(§1) Lipid nanoparticle formulations of Table 1 were prepared by Process A. More specifically, an ethanolic solution of a mixture of lipids including DMG-PEG-2000, cationic lipid, cholesterol, and phosphatidylethanolamine (DOPE) in a ratio of 1.5:40:28.5:30 were combined with an aqueous buffered solution (1 mM Citrate and 150 mM NaCl) of target mRNA at an acidic pH (4.5) under controlled conditions to yield a dispersion of uniform lipid nanoparticles (LNPs). Upon ultrafiltration and diafiltration into the final buffer, the resulting nanoparticle dispersions were diluted to required concentration using the final buffer (10% Trehalose), sterile filtered and stored frozen at −80° C. until use.
All of the lipid nanoparticle formulations comprised hEPO mRNA and the different lipids in following mol % ratios: Cationic Lipid: DMG-PEG2000; Cholesterol:DOPE=40:1.5:28.5:30.
DLS measurements were performed using a Malvern Instruments Zetasizer with a backscattering detector angle of 173° and a 4-mW, 633-nm He—Ne laser (Worcestershire, UK). The samples were analyzed by diluting in 10% Trehalose and measuring the size and Poly dispersity Index (PDI) in an optical grade polystyrene cuvette.
The following lipid nanoparticles were formulated according to Example 51.
as §1, with “Table 3” for “Table 1”

[2] = RiboGreen assay, % encapsulation of mRNA in lipid nanoparticles; assay type: physicochemical; conditions: hEPO mRNA LNP, Cationic Lipid:DMG-PEG2000:Cholesterol:DOPE=40:1.5:28.5:30, N/P ratio 4, Process A
Text: In embodiments, the lipid nanoparticle encapsulates a nucleic acid, optionally an mRNA encoding a peptide or protein. In embodiments, the peptide is an antigen. In embodiments, the lipid nanoparticle encapsulates an mRNA encoding a peptide or protein. As used herein, the phrase “encapsulation percentage” refers to the fraction of therapeutic agent (e.g. mRNA) that is effectively encapsulated within a liposomal-based vehicle (e.g. a lipid nanoparticle) relative to the initial fraction of therapeutic agent present in the lipid phase. In embodiments, the lipid nanoparticles have an encapsulation percentage for mRNA of at least 50%. In embodiments, the lipid nanoparticles have an encapsulation percentage for mRNA of at least 55%. In embodiments, the lipid nanoparticles have an encapsulation percentage for mRNA of at least 60%. In embodiments, the lipid nanoparticles have an encapsulation percentage for mRNA of at least 65%. In embodiments, the lipid nanoparticles have an encapsulation percentage for mRNA of at least 70%. In embodiments, the lipid nanoparticles have an encapsulation percentage for mRNA of at least 75%. In embodiments, the lipid nanoparticles have an encapsulation percentage for mRNA of at least 80%. In embodiments, the lipid nanoparticles have an encapsulation percentage for mRNA of at least 85%. In embodiments, the lipid nanoparticles have an encapsulation percentage for mRNA of at least 90%. In embodiments, the lipid nanoparticles have an encapsulation percentage for mRNA of at least 95%. In embodiments, the encapsulation percentage is calculated by performing the Ribogreen assay (Invitrogen) with and without the presence of 0.1% Triton-X 100.
The RiboGreen Assay is a fluorescence-based method for the determination of mRNA concentration (Total and Free) and % encapsulation using Quant-iT™ RiboGreen® RNA reagent in mRNA containing lipid nanoparticles.
• To each of the standards (Blank, mRNA-1, mRNA-2. mRNA-3, mRNA-4, mRNA-5) and Samples (free mRNA and total mRNA), add 1.0 mL of 200-fold Ribogreen Reagent Solution and gently mix by inversion. This is a 2× Dilution. • Add 200 μL of each standard and sample in triplicate using the reverse pipetting technique in a 96-well Costar Black with Clear Background Plate. Ensure no bubbles are present in the plate before the fluorescence reading. • Read the fluorescence signal using the below instrument parameters: • Read Type: Fluorescence, Bottom Read • Excitation: 485 nm; Cut-off: 515 nm; Emission: 530 nm • Plate Type: 96-well Costar Black with Clear Background
The average fluorescence from each calibration standard is plotted against the concentration to generate a linear calibration curve using the MS Excel software. The coefficient of determination (R^2) of calibration curve must be R^2>0.99.
[formula] • Where, • Y=average fluorescence value • m: slope • x: concentration (pg/mL) • c: y-intercept • Using the linear equation, calculate the concentration of free and total mRNA concentration in the test sample by replacing the y value in the equation with the average fluorescence value of each respective sample • Once the concentration is determined, the actual concentration in the sample can be back-calculated by multiplying the concentration in the test sample with the dilution factor (DF) as follows:
[formula] • Concentration of encapsulated mRNA can be determined by subtracting the concentration of free mRNA from the total mRNA. • % Encapsulation can then be calculated by taking the ratio of encapsulated mRNA over total mRNA and multiplying the result with 100.

[3] = tested on: Human erythropoietin (hEPO) levels in sera; assay: Delivery of hEPO mRNA by intramuscular administration of lipid nanoparticles; serum hEPO by ELISA; assay type: in vivo, Mouse; conditions: for in vivo hEPO protein production (FIG. 51): intramuscular delivery of hEPO mRNA using lipid nanoparticles comprising the compound, result in words; for hEPO 6 Hr (ng/mL) Mean / hEPO 24 Hr (ng/mL) Mean: serum, 0.1 μg/animal hEPO mRNA LNP, n=4; for hEPO 6 Hr (ng/mL) Mean: 6 hours post dose; for hEPO 24 Hr (ng/mL) Mean: 24 hours post dose
Procedure: WO2022/099003 A1 describes an in vivo assay for intramuscular administration (e.g. on page 46, paragraph [00206]). Further details of the intramuscular experiment performed in this application are provided below.
Treatment Regimen: On Day 1, animals from Groups 1-8 were dosed via intramuscular injection while under light isoflurane anesthesia according to the study design table above. Animals in Groups 2-8 were injected with EPO in the right leg only. Group 1 animals received saline control.
Interim Sample Collections: Interim whole blood (~50 μL) was collected by tail snip or saphenous vein at 6 hours post dose administration (±5%). Blood samples were collected into serum separator tubes, allowed to clot at room temperature for at least 10 minutes, centrifuged at ambient temperature at minimum 1000 g for 10 minutes and the serum was extracted. All serum samples were stored at nominally −70° C. until analysis hEPO by the Testing Facility. The results of the EPO analysis were included in the Data Submission.
Terminal Blood Collections: Whole blood was collected via cardiac puncture into serum separator tube, allowed to clot at room temperature for at least 10 minutes, centrifuged at ambient temperature at minimum 1000 g for 10 minutes and the serum was extracted. Serum samples were stored at nominally −70° C. until analyzed for hEPO by the Test Facility.
ELISA Assay: Human erythropoietin (hEPO) levels in sera samples were determined by ELISA kit (R&D systems, Cat #DEP-00) according to the manufactory instruction and the results were included in the Data Submission. The “shaker” protocol was used. The serum samples were diluted between 1:40 and 1:100.
The ability of the further exemplary lipid nanoparticles in Example 54 to deliver hEPO mRNA by intramuscular administration was tested in accordance with the experimental protocol set out in Example 52.

[4] = single IM injection, female BALB/cJ mice

Row | PDI ([1]; Table 1) | Size (nm) ([1]; Table 1) | Encapsulation Percentage (%) ([2]; Table 1) | PDI ([1]; Table 3, further LNPs) | Size (nm) ([1]; Table 3, further LNPs) | Encapsulation Percentage (%) ([2]; Table 3, further LNPs) | SMILES | in vivo hEPO protein production (FIG. 51) [3] | hEPO 6 Hr (ng/mL) Mean [3, 4] | hEPO 24 Hr (ng/mL) Mean [3, 4] | hEPO 6 Hr (ng/mL) Mean ([3]; fifth occasion, IM, mice) | hEPO 6 Hr (ng/mL) Mean ([3]; fourth occasion, IM, mice)
1 | 0.052 | 134 nm | 33% |  |  |  | CCCCCC/C=C\COC(=O)CCCCCC(O)CN(CCCOC(=O)CN(C)CC(=O)OCCCN(CC(O)CCCCCC(=O)OC/C=C\CCCCCC)CC(O)CCCCCC(=O)OC/C=C\CCCCCC)CC(O)CCCCCC(=O)OC/C=C\CCCCCC (stereo not drawn) [XV] | high levels of in vivo hEPO protein production | 31.9 ng/mL | 15.1 ng/mL |  | 
2 | 0.098 | 101 nm | 67% |  |  |  | CCCCCCCCCCC(O)CN(CCCCOC(=O)CN(C)CC(=O)OCCCCN(CC(O)CCCCCCCCCC)CC(O)CCCCCCCCCC)CC(O)CCCCCCCCCC (stereo not drawn) [XIV] | high levels of in vivo hEPO protein production | 33.9 ng/mL | 18.3 ng/mL |  | 
3 |  |  |  | 0.137 | 114 nm | 99% | CCCCCCCCCCCOC(=O)CCCC(O)CN(CCCCN(C)C(=O)CN(C)CC(=O)N(C)CCCCN(CC(O)CCCCCC(=O)OC(CCCCCCCC)CCCCCCCC)CC(O)CCCC(=O)OCCCCCCCCCCC)CC(O)CCCCCC(=O)OC(CCCCCCCC)CCCCCCCC (stereo not drawn) [Compound LXXVII, di(heptadecan-9-yl) 7,27-dihydroxy-9,25-bis(2-hydroxy-6-oxo-6-(undecyloxy)hexyl)-14,17,20-trimethyl-15,19-dioxo-9,14,17,20,25-pentaazatritriacontanedioate] |  |  |  | 45.6 ng/mL | 
4 |  |  |  | 0.085 | 138 nm | 96% | CCCCCCCCCCC(=O)OCCCCC(O)CN(CCCCNC(=O)CC(C)(O)CC(=O)NCCCCN(CC(O)CCCCCOC(=O)C(CCCCCCCC)CCCCCCCC)CC(O)CCCCOC(=O)CCCCCCCCCC)CC(O)CCCCCOC(=O)C(CCCCCCCC)CCCCCCCC (stereo not drawn) [Compound XCIV] |  |  |  | 36.4 ng/mL | 
5 |  |  |  | 0.093 | 108 nm | 82% | CCCCCCCCCCC(O)CN(CCCOC(=O)[C@H](CCc1ccc(O)cc1)NC(=O)CCCN(CC(O)CCCCCCCCCC)CC(O)CCCCCCCCCC)CC(O)CCCCCCCCCC (stereo partly drawn) [Compound C, 3-[bis(2-hydroxydodecyl)amino]propyl (S)-2-{4-[bis(2-hydroxydodecyl)amino]butyrylamino}-4-(p-hydroxyphenyl)butyrate] |  |  |  |  | 37.2 ng/mL
6 | 0.124 | 106 nm | 78% |  |  |  | CCCCCCCCCCC(O)CN(CCCOC(=O)CCC(C)C(=O)OCCCN(CC(O)CCCCCCCCCC)CC(O)CCCCCCCCCC)CC(O)CCCCCCCCCC (stereo not drawn) [XXXII] | high levels of in vivo hEPO protein production | 17.0 ng/mL | 10.3 ng/mL |  | 
